Results taken from patent US20150119388A1, “NOVEL PRO- AND CODRUG DERIVATIVES FOR NANOPARTICLE DELIVERY OF SELECT ANTICANCER AGENTS FORMED USING RAPIDLY CLEAVABLE PHENOLIC ESTER BRIDGES” (THE CHILDREN'S HOSPITAL OF PHILADELPHIA, priority 2012, published 2015).

Tests used:
carboxylesterase = details: carboxylesterase-mediated; rest eliminated through alternative pathways; cited from earlier work
[1] = tested on: SY5Y-TrkB human neuroblastoma cells; experiment: Tumor growth inhibition in the murine xenograft model of neuroblastoma; assay type: in vivo, athymic nu/nu mice; details: three weeks
Procedure: For xenograft studies, athymic nu/nu mice (nine animals per group) were injected in the flank with 10^7 SY5Y-TrkB human neuroblastoma cells in 0.3 mL […]™ matrix (BD Biosciences, Franklin Lakes, N.J.). Treatment was started when the average SY5Y-TrkB tumor size was 0.2 cm^3. Nanoparticles were administered intravenously through the tail vein twice a week at a dose equivalent to 10 mg/kg of SN-38 per injection for comparison against a ‘no treatment’ control and a clinically used irinotecan formulation (CAMPTOSAR®, Pfizer, given orally five times a week at a therapeutically relevant dose of 10 mg/kg as described in Thompson J. et al., Efficacy of oral irinotecan against neuroblastoma xenografts, Anticancer Drugs. 1997 April; 8(4):313-22). Tumor size in each group was measured daily over a period of three weeks. […] The error bars in FIG. 2A represent standard deviations.
Tumor growth inhibition by PLA-PEG nanoparticles loaded with an SN-38 conjugate with tocopherol succinate (made according to Example 7) was administered over 4 weeks at indicated dose regimens (each injection equivalent to 10 mg SN-38/kg) to animals xenografted as in Example 8. The effect is shown in comparison to irinotecan administered 5 times a week for 4 weeks at the same dose per injection. Animals were sacrificed after their tumors reached 3 cm^3. […]

SMILES: CCc1c2c(nc3ccc(OC(=O)N4CCC(N5CCCCC5)CC4)cc13)-c1cc3c(c(=O)n1C2)COC(=O)[C@]3(O)CC [irinotecan]
- rate of conversion to the pharmacologically active SN-38 (carboxylesterase): less than 10%
- efficacy on tumor size (FIG. 2A) ([1]; CAMPTOSAR given orally five times a week at 10 mg/kg (50 mg/kg per week)): showed efficacy vs. ‘no treatment’ control
- animal survival (FIG. 2B) ([1]; CAMPTOSAR given orally five times a week at 10 mg/kg, vs 'no treatment' control): significantly improved animal survival compared with the control group
